“And” between values parts separate entries of the source, which are not always exact repeats. Equal values may be shown once.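 Dose response: 5 concentrations. Exposure: 48 h. Format: 96-well plates. Endpoint: linear interpolation; highest concentration if not reached. At the GI50, growth is halved. TGI marks complete inhibition of growth.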
What was measured:
Assay in all cases: inhibition of tumour cell growth, NCI panel, 48 h
DU-145 prostate = tested on: DU-145 prostate
HOP-62 NSCLC = tested on: HOP-62 NSCLC
HOP-92 NSCLC = tested on: HOP-92 NSCLC
MALME-3M melanoma = tested on: MALME-3M melanoma
NCI-H23 lung = tested on: NCI-H23 lung
NCI/ADR-RES ovarian = tested on: NCI/ADR-RES ovarian
SF-295 CNS = tested on: SF-295 CNS
SF-539 CNS = tested on: SF-539 CNS
SK-OV-3 ovarian = tested on: SK-OV-3 ovarian
UACC-62 melanoma = tested on: UACC-62 melanoma

Row | SMILES | GI50 (DU-145 prostate) | TGI (DU-145 prostate) | GI50 (HOP-62 NSCLC) | TGI (HOP-62 NSCLC) | GI50 (HOP-92 NSCLC) | TGI (HOP-92 NSCLC) | GI50 (MALME-3M melanoma) | TGI (MALME-3M melanoma) | GI50 (NCI-H23 lung) | TGI (NCI-H23 lung) | GI50 (NCI/ADR-RES ovarian) | TGI (NCI/ADR-RES ovarian) | GI50 (SF-295 CNS) | TGI (SF-295 CNS) | GI50 (SF-539 CNS) | TGI (SF-539 CNS) | GI50 (SK-OV-3 ovarian) | TGI (SK-OV-3 ovarian) | GI50 (UACC-62 melanoma) | TGI (UACC-62 melanoma)
1 | CC(C)(C)OC(=O)N(CCCn1c2c(c3ccccc3c1=O)C(=O)c1ccccc1-2)CCN(CCCn1c2c(c3ccccc3c1=O)C(=O)c1ccccc1-2)C(=O)OC(C)(C)C | > 50 µM | > 50 µM | 19.8 µM | > 50 µM | 11.1 µM | > 50 µM | > 50 µM | > 50 µM | > 50 µM | > 50 µM | > 50 µM | > 50 µM | 14 µM | > 50 µM | > 50 µM | > 50 µM | > 50 µM | > 50 µM | 45.3 µM | > 50 µM
2 | COc1cc2c(C#N)n3c(c2cc1OC)C(=O)C(c1ccccc1)Oc1ccccc1-3 (stereo not given) | 91 µM | > 100 µM | 3.64 µM | > 100 µM | 1.46 µM | 5.52 µM | > 100 µM | > 100 µM | 3.04 µM | > 100 µM | 3.05 µM | > 100 µM | 4.1 µM | > 100 µM | 19.8 µM | > 100 µM | 21.1 µM | > 100 µM | – | –
3 | CCOc1ccc2c(-c3ccnc(Nc4cccc(C(F)(F)F)c4)n3)cnn2n1 | > 19.5 µM | > 25 µM | > 21 µM | > 25 µM | 5.05 µM | 24 µM | > 25 µM | > 25 µM | 6.97 µM | > 20 µM | 9.04 µM | > 25 µM | > 25 µM | > 25 µM | 4.92 µM | 9.63 µM | 8.11 µM | 18.9 µM | 11.5 µM | > 25 µM
4 | CO/N=C(\COc1ccc2c(=O)cc(-c3ccccc3)oc2c1)c1ccc(OC)cc1 | > 100 µM | > 100 µM | > 100 µM | > 100 µM | 20.2 µM | 96.4 µM | > 100 µM | > 100 µM | > 100 µM | > 100 µM | > 100 µM | > 100 µM | 21 µM | 46.5 µM | > 100 µM | > 100 µM | > 100 µM | > 100 µM | > 100 µM | > 100 µM
5 | CC(=O)OC1CC(C)c2c1ncnc2N1CCN(C(=O)OC(C)(C)C)CC1 (stereo not given) | 31.9 µM | 86.9 µM | 45.4 µM | > 100 µM | 19.4 µM | 91.4 µM | 35.5 µM | > 100 µM | 58.9 µM | > 100 µM | 67.6 µM | > 100 µM | – | – | 30.8 µM | > 100 µM | 53.7 µM | > 100 µM | 46.4 µM | > 100 µM
6 | COc1ccccc1NC(=O)N/C(N)=N/c1nc2ccccc2s1 | 0.159 µM | > 100 µM | 0.111 µM | > 100 µM | > 23.4 µM | > 100 µM | – | – | 0.15 µM | > 100 µM | 0.0474 µM | – | 0.0418 µM | – | 0.0718 µM | 0.411 µM | 0.476 µM | > 100 µM | 0.0647 µM | > 100 µM
7 | O=c1cc(-c2ccccc2)oc2cc(OCc3cn(Cc4ccc(F)cc4)nn3)cc(O)c12 | > 100 µM | > 100 µM | 3.76 µM | 21.7 µM | 4.43 µM | 45.5 µM | 5.06 µM | > 100 µM | 7.7 µM | > 100 µM | 5.57 µM | > 100 µM | 10.2 µM | 46.8 µM | 5.17 µM | > 100 µM | 6.57 µM | > 100 µM | – | –
8 | COc1ccc(CNCCCN2C(=O)c3ccc4c5c(ccc(c35)C2=O)C(=O)N(CCCNCCCCNCCCN)C4=O)c(OC)c1OC | 1.55 µM | 3.44 µM | 1.4 µM | 8.97 µM | – | – | 1.21 µM | 2.76 µM | 1.35 µM | 4.22 µM | 6.01 µM | 49.7 µM | 2.35 µM | 15.9 µM | 2.23 µM | 5.3 µM | 3.18 µM | 83.2 µM | 1.48 µM | 4.37 µM
9 | CCN(CC)CCNc1ccc(CO)c2sc3ccccc3c(=O)c12 | 2.99 µM | 9.87 µM and 27.6 µM | – | 26 µM [middle of 4 runs] | 1.91 µM and 5.36 µM | 15 µM and 14.9 µM and 17.9 µM | – | – | 3.14 µM and 13.6 µM | 16.4 µM and 22.7 µM and 29.3 µM | 2.99 µM and 4.29 µM and 7.25 µM | 17 µM and 17.3 µM and 21 µM | 2.98 µM and 5.31 µM | 21.1 µM [middle of 4 runs] | 4.53 µM and 7.78 µM and 16.7 µM | 24.1 µM [middle of 4 runs] | – | – | 1.94 µM and 11.3 µM | –
10 | CC(=O)OC1C(O)COC(Oc2c(C)c3c4c(c2O)[C@@H](C)CC[C@@H]4[C@@H](C)C[C@H]3C=C(C)C)C1O (stereo not given in full) | 12.8 µM | 29 µM | 15.4 µM | 32.5 µM | 15.6 µM | 32 µM | 15.3 µM | 30.1 µM | 17.9 µM | 37.5 µM | 15.4 µM | 32.5 µM | 18.1 µM | 35.7 µM | – | – | 19.6 µM | 39.2 µM | 16.3 µM | 36 µM
11 | COc1cc([N+](=O)[O-])c(S(=O)(=O)O)cc1-n1nc(-c2ccccc2)n[n+]1-c1cc(S(=O)(=O)[O-])c([N+](=O)[O-])cc1OC | – | > 100 µM | – | > 100 µM | – | – | – | > 100 µM | – | > 100 µM | – | > 100 µM | – | > 100 µM | – | > 100 µM | – | > 100 µM | – | > 100 µM
12 | CNC1=C(Br)C(=O)C2=C(C1=O)C1C3=C(C(=O)C=CC3=O)C2c2ccccc21 (stereo not given) | 4.06 µM | 10.3 µM | 7.68 µM | 23.6 µM | 1.91 µM | 4.19 µM | 6.96 µM | 16.2 µM | 5.76 µM | 25.9 µM | 4.68 µM | 13.4 µM | 19.2 µM | 45.8 µM | – | – | 10.3 µM | > 55.2 µM | 2.52 µM | 6.85 µM
13 | O=C(/C=C/c1ccccc1)c1ccc(O)c(CN2CCN(c3cc4c(cc3F)c(=O)c(C(=O)O)cn4C3CC3)CC2)c1 | 1.53 µM | > 100 µM | 3.22 µM | > 100 µM | – | – | 0.769 µM | 15.6 µM | 2.2 µM | 16.9 µM | 7.86 µM | > 100 µM | 2.05 µM | 26.1 µM | 0.465 µM | > 100 µM | 2.77 µM | > 100 µM | 1.67 µM | > 100 µM

Source: PubChem BioAssay (NCI)
